Data from patent US20190133128A1, “Fungicidal pyridazinones” (FMC Corporation, priority 2017, published 2019).
Marks after values point to notes of the source that are not given here.

Key:
Format in all cases: in vivo
Botrytis cinerea = assay: Test C: preventive spray on tomato seedlings, gray mold, visual disease rating
Description: (§1) General protocol for preparing test solutions for Tests AG: the test compounds were first dissolved in acetone in an amount equal to 3% of the final volume and then suspended at the desired concentration (in ppm) in acetone and purified water (50/50 mix by volume) containing the surfactant PEG400 (polyhydric alcohol esters). The resulting test suspensions were then used in Tests AG. Compounds were sprayed at a concentration of 250 ppm or other indicated rate to the point of run-off on the test plants. The test solution was sprayed to the point of run-off on tomato seedlings. […] A dash (-) indicates no test results.

[1] = tested on: Puccinia recondita f. sp. tritici; assay: Test F: preventive spray on wheat seedlings, wheat leaf rust, visual disease rating
Description: as §1, with “wheat” for “tomato”, “seedlings. The following day the seedlings were inoculated with a spore suspension of Puccinia recondita f. sp. tritici;” for “seedlings.”

[2] = tested on: Erysiphe graminis f. sp. tritici; assay: Test G: preventive spray on wheat seedlings, wheat powdery mildew, visual disease rating
Description: as §1, with “wheat” for “tomato”

Phytophthora infestans = assay: whole plant or invertebrate; conditions: tomato seedlings
Zymoseptoria tritici = assay: Test E: preventive spray on wheat seedlings, wheat leaf blotch, visual disease rating
Description: as §1, with “wheat” for “tomato”

Phakopsora pachyrhizi = assay: Test A: preventive spray on soybean seedlings, Asian soybean rust, visual disease rating; conditions: 250 ppm, 100 = 100% disease control, 0 = no control
[3] = 250 ppm, 100 = 100% disease control, 0 = no control

Row | Compound | Test C disease control rating (Botrytis cinerea; 200 ppm) [%] | Test F disease control rating ([1]; 200 ppm) [%] | Test G disease control rating ([2]; 200 ppm) [%] | Test D disease control rating (Phytophthora infestans; 200 ppm) | Test C disease control rating (Botrytis cinerea; [3]) [%] | Test A disease control rating (Phakopsora pachyrhizi) [%] | Test F disease control rating [1, 3] [%] | Test E disease control rating (Zymoseptoria tritici; [3]) [%] | Test G disease control rating [2, 3] [%] | Test D disease control rating (Phytophthora infestans; [3]) [%] | further results
1 | Cn1ncc(O)c(C(=O)Nc2ccc3c(c2)OC(F)(F)O3)c1=O [Compound 1] | 0 | 98 | 40 | 0% |  |  |  |  |  |  | 
2 | Cc1nn(C)c(=O)c(C(=O)Nc2ccc(OC(F)(F)F)cc2)c1O [Compound 3] | 0 | 0 | 37 | 0% |  |  |  |  |  |  | Test E disease control rating (Zymoseptoria tritici; 200 ppm): 0%
3 | CCCn1ncc(O)c(C(=O)Nc2ccc(OC(F)(F)F)cc2)c1=O [Compound 4] | 0 | 95 | 97 | 99% |  |  |  |  |  |  | Test E disease control rating (Zymoseptoria tritici; 200 ppm): 0%
4 | CCn1ncc(O)c(C(=O)Nc2ccc(OC(F)(F)F)cc2)c1=O [Compound 5] | 10 | 84 | 32 | 50% |  |  |  |  |  |  | Test E disease control rating (Zymoseptoria tritici; 200 ppm): 0%
5 | COc1cnn(C)c(=O)c1C(=O)Nc1ccc(Cl)cc1 [Compound 8] | 0 | 0 | 0 | 0% |  |  |  |  |  |  | 
6 | Cn1ncc(O)c(C(=O)Nc2ccc(Cl)cc2)c1=O [Compound 9] | 0 | 99 | 96 | 0% |  |  |  |  |  |  | 
7 | Cn1ncc(O)c(C(=O)Nc2ccccc2Cl)c1=O [Compound 10] | 99 | 97 | 0 | 0% |  |  |  |  |  |  | 
8 | Cn1ncc(O)c(C(=O)Nc2cccc(Cl)c2)c1=O [Compound 11] | 48 | 95 | 31 | 0% |  |  |  |  |  |  | 
9 | CCn1ncc(O)c(C(=O)Nc2ccc(Cl)nc2)c1=O [Compound 12] |  | 91 | 93 | 0% |  |  |  |  |  |  | 
10 | O=C(Nc1ccc(Cl)nc1)c1c(O)cnn(-c2ccccc2)c1=O [Compound 14] | 90 | 98 | 0 | 0% |  |  |  |  |  |  | 
11 | Cn1ncc(O)c(C(=O)Nc2cccc(C#N)c2)c1=O [Compound 15] | 16 | 91 | 0 | 79% |  |  |  |  |  |  | 
12 | Cc1cc(Cl)ccc1NC(=O)c1c(O)cnn(C)c1=O [Compound 16] | 0 | 99 | 45 | 91% |  |  |  |  |  |  | 
13 | Cn1ncc(O)c(C(=O)Nc2ccc(Cl)c(Cl)c2)c1=O [Compound 17] | 0 | 99 | 0 | 57% |  |  |  |  |  |  | 
14 | Cn1ncc(O)c(C(=O)Nc2ccc(Cl)c(C(F)(F)F)c2)c1=O [Compound 18] | 0 | 83 | 46 | 0% |  |  |  |  |  |  | 
15 | Cn1ncc(O)c(C(=O)Nc2cccc3cccnc23)c1=O [Compound 19] | 0 | 96 | 0 | 0% |  |  |  |  |  |  | 
16 | Cn1ncc(O)c(C(=O)Nc2c(F)cccc2F)c1=O [Compound 20] | 0 | 0 | 0 | 0% |  |  |  |  |  |  | 
17 | Cn1ncc(O)c(C(=O)NCc2ccc(Cl)cc2)c1=O [Compound 22] |  |  |  |  |  |  |  |  |  |  | Test C disease control rating (Botrytis cinerea; 40 ppm): 0%; Test F disease control rating ([1]; 40 ppm): 41%; Test G disease control rating ([2]; 40 ppm): 0%; Test D disease control rating (Phytophthora infestans; 40 ppm): 0%

Row | Compound | Test C disease control rating (Botrytis cinerea; 200 ppm) [%] | Test F disease control rating ([1]; 200 ppm) [%] | Test G disease control rating ([2]; 200 ppm) [%] | Test D disease control rating (Phytophthora infestans; 200 ppm) | Test C disease control rating (Botrytis cinerea; [3]) [%] | Test A disease control rating (Phakopsora pachyrhizi) [%] | Test F disease control rating [1, 3] [%] | Test E disease control rating (Zymoseptoria tritici; [3]) [%] | Test G disease control rating [2, 3] [%] | Test D disease control rating (Phytophthora infestans; [3]) [%] | further results
18 | CN(C(=O)c1c(O)cnn(C)c1=O)c1ccc(Cl)cc1 [Compound 23] |  |  |  |  |  |  |  |  |  |  | Test C disease control rating (Botrytis cinerea; 40 ppm): 0%; Test F disease control rating ([1]; 40 ppm): 0%; Test G disease control rating ([2]; 40 ppm): 0%; Test D disease control rating (Phytophthora infestans; 40 ppm): 0%
19 | Cn1ncc(O)c(C(=O)Nc2ccc(Cl)cc2C#N)c1=O [Compound 24] | 99 | 91 | 0 | 0% |  |  |  |  |  |  | 
20 | Cn1ncc(O)c(C(=O)Nc2cccc(F)c2)c1=O [Compound 25] | 0 | 89 | 0 | 0* % |  |  |  |  |  |  | 
21 | Cn1ncc(O)c(C(=O)Nc2ccccc2-c2cc(F)c(F)c(F)c2)c1=O [Compound 27] |  |  |  |  | 0 | 0 | 98 | 0 | 0 | 0 | 
22 | Cn1ncc(O)c(C(=O)Nc2ccccc2-c2ccc(Cl)cc2)c1=O [Compound 28] |  |  |  |  | 0 | 0 | 97 | 0 | 27 | 0 | 
23 | COc1ccc(NC(=O)c2c(Cl)cnn(C)c2=O)cc1 [Compound 30] |  |  |  |  | 0 | 60 | 96 | 0 | 0 | 0 | 
24 | Cc1ccc(NC(=O)c2c(Cl)cnn(C)c2=O)cc1 [Compound 31] |  |  |  |  | 92 | 65 | 95 | 0 | 0 | 0 | 
25 | Cn1ncc(Cl)c(C(=O)Nc2ccccc2-c2ccc(F)c(F)c2F)c1=O [Compound 32] |  |  |  |  | 0 | 94 | 96 | 0 | 0 | 0 | 
26 | Cn1ncc(Cl)c(C(=O)Nc2ccccc2-c2ccc(Cl)cc2)c1=O [Compound 33] |  |  |  |  | 0 | 48 | 97 | 0 | 0 | 0 | 
27 | COc1ccccc1NC(=O)c1c(O)cnn(C)c1=O [Compound 34] |  |  |  |  | 0 | 0 | 80 | 0 | 0 | 0 | 
28 | Cn1ncc(O)c(C(=O)Nc2ccccc2Br)c1=O [Compound 35] |  |  |  |  | 0 | 0 | 98 | 0 | 0 | 71 | 
29 | Cn1ncc(O)c(C(=O)Nc2ccccc2F)c1=O [Compound 36] |  |  |  |  | 0 | 31 | 98 | 0 | 78 | 94 | 
30 | Cn1ncc(O)c(C(=O)Nc2ccc(OC(F)(F)F)cc2F)c1=O [Compound 48] |  |  |  |  | 62 |  | 99 | 96 | 97 | 97 | 
31 | Cn1ncc(OS(C)(=O)=O)c(C(=O)Nc2ccc(C(F)(F)F)nc2)c1=O [Compound 94] |  |  |  |  | 0 | 77 | 99 |  | 52 | 0 | 
32 | Cn1ncc(OS(C)(=O)=O)c(C(=O)Nc2ncc(Cl)cn2)c1=O [Compound 95] |  |  |  |  | 0 | 73 | 68 |  | 0 | 0 | 
33 | Cn1ncc(OS(=O)(=O)c2ccccc2)c(C(=O)Nc2ccc(OC(F)(F)F)cc2)c1=O [Compound 107] |  |  |  |  | 0 |  | 100 | 71 | 98 | 96 | 
